Experimental data reported in patent publication US9066965B1, “Purified limonin glucoside for prevention and treatment of chronic diseases” (The United States of America, as represented by the …, priority 2012, dated 2015).

Assays:
[1] = tested on: alkaline phosphatase (ALP); conditions: 500 mg/d, 56 days
Experimental: CMP performed on serum samples at the chemistry laboratory of University of California Medical Center by using the Beckman Coulter DxC800. GGT and CKMB were determined in the EDTA plasma. GGT activity was determined by using Integra 400 Chemistry Analyzer, Roche Diagnostics. CKMB concentration was determined by using the Multiplex kits from Mesoscale Discovery (Gaithersburg, Md. 20877).
SAS PROC MIXED was used to fit the cross-over model (Littell R C, Milliken G A, Stroup W W, Wolfinger R D, Schabenberger O. SAS System for Mixed Models. Cay, N.C.: SAS Institute Inc.; 2006). Transformations were used when appropriate to stabilize the variances among the diets and periods. The fixed effects were order, diet, the interaction and the covariate; and the random effect was subjects within order. The test for order is a test for carry-over effect. […] Comparisons were made between the values at the end of placebo and LG treatments and using the baseline data as a covariate. Results are presented as means±SEM. Differences were considered statistically significant for P value<0.05.

[2] = tested on: complement fraction 3 (C3); assay: Serum C3 concentration (Integra 400 Plus); type: in vivo, human
Experimental: Plasma concentrations of epidermal growth factor (EGF), interleukin-13 (IL-13), interleukin-1 receptor antagonist (IL-1Ra), and tumor necrosis factor α (TNF α) were analyzed in EDTA plasma on a Sector Imager 2400 instrument using a multiplex kits from MSD (Meso-Scale Discovery, Gaithersburg, Md.). Concentrations of C reactive protein (CRP), and complement 3 and 4 (C3, C4) were analyzed in serum by using an Integra 400 Plus Chemistry Analyzer, (Roche Diagnostics Corp., Indianapolis, Ind.). Serum amyloid A (SAA), soluble intracellular adhesion molecule-1 (sICAM-1), and soluble vascular cell adhesion molecule-1 (sVCAM-1) were tested in serum on a Sector Imager 2400 instrument using a multiplex kit from MSD (Meso-Scale Discovery, Gaithersburg, Md.).
(§1) Results are presented as means±SEM.

[3] = Rules Based Medicine human multi-analyte panel (MAP 1.6), plasma; type: in vivo; parameters: Epidermal growth factor: unit not given here
Experimental: Plasma samples prepared from blood collected in EDTA-containing tubes were stored at −80° C. until tested. The samples were thawed at room temperature, vortexed, spun at 13,000×g for 5 minutes for clarification and 100 uL aliquots were removed for MAP analysis into a master microtiter plate. Using automated pipetting, an aliquot of each sample was introduced into one of the capture microsphere multiplexes of the Human MAP 1.6. This MAP comprised of 89 antigens that included markers for oxidative stress, inflammation, immune status, T2DM, CVD, blood clotting, cancer, liver and kidney functions. All plasma samples were tested in duplicate. The mixture of sample and capture microspheres were thoroughly mixed and incubated at room temperature for 1 hour. Multiplexed cocktails of biotinylated, reporter antibodies for each multiplex were then added robotically and after thorough mixing, were incubated for an additional hour at room temperature. Multiplexes were developed using an excess of streptavidin-phycoerythrin solution which was thoroughly mixed into each multiplex and incubated for 1 hour at room temperature. The volume of each multiplexed reaction was reduced by vacuum filtration and the volume increased by dilution into matrix buffer for analysis. Analysis was performed in a Luminex 100 instrument and the resulting data stream was interpreted using proprietary data analysis software developed at Rules-Based Medicine. For each multiplex, both calibrators and controls were included on each microtiter plate. 8-point calibrators were run in the first and last column of each plate and 3-level controls were included in duplicate. Testing results were determined first for the high, medium and low controls for each multiplex to ensure proper assay performance. Unknown values for each of the analytes localized in a specific multiplex were determined using 4 and 5 parameter, weighted and non-weighted curve fitting algorithms included in the data analysis package. The intra-sample coefficient of variance (CV) for all antigens with concentrations above the lowest detectable dose (LDD) was less than 20%, and was less than 10% for more than 50% of the antigens tested.
as §1

[4] = tested on: Complement 3; assay: Plasma complement 3 in MAP 1.6; type: in vivo, human
Experimental: Plasma samples prepared from blood collected in EDTA-containing tubes were stored at −80° C. until tested. The samples were thawed at room temperature, vortexed, spun at 13,000×g for 5 minutes for clarification and 100 uL aliquots were removed for MAP analysis into a master microtiter plate. Using automated pipetting, an aliquot of each sample was introduced into one of the capture microsphere multiplexes of the Human MAP 1.6. This MAP comprised of 89 antigens that included markers for oxidative stress, inflammation, immune status, T2DM, CVD, blood clotting, cancer, liver and kidney functions. All plasma samples were tested in duplicate. The mixture of sample and capture microspheres were thoroughly mixed and incubated at room temperature for 1 hour. Multiplexed cocktails of biotinylated, reporter antibodies for each multiplex were then added robotically and after thorough mixing, were incubated for an additional hour at room temperature. […] Testing results were determined first for the high, medium and low controls for each multiplex to ensure proper assay performance. Unknown values for each of the analytes localized in a specific multiplex were determined using 4 and 5 parameter, weighted and non-weighted curve fitting algorithms included in the data analysis package. […]

[5] = Complete blood cell count (hematological parameters); type: in vivo, human; conditions: End LG, 500 mg/d, 56 days, n = 10, mean ± SEM
[6] = End LG, 500 mg/d, 56 days, n = 10, mean ± SEM

CC1(C)O[C@H]2CC(=O)OC[C@]23[C@H]2CC[C@@](C)([C@@H](O[C@@H]4O[C@H](CO)[C@@H](O)[C@H](O)[C@H]4O)c4ccoc4)[C@@]4(O[C@@H]4C(=O)O)[C@]2(C)C(=O)C[C@@H]13 [LG, limonin glucoside]
Alkaline phosphatase ([1]; serum, End LG, n = 10, mean ± SEM): 59.5 ± 3.47 U/L
decrease of serum alkaline phosphatase (ALP) activity ([1]; vs end of placebo treatment, p=0.025): 10.1%
C3 ([2]; serum, End LG, 500 mg/d, 56 days, n = 10, mean ± SEM): 1.18 ± 0.05 mg/mL
decrease of serum C3 concentration ([2]; vs end of placebo treatment, Integra 400 Plus, p=0.055): 4.8%
Adiponectin [3, 6]: 3.19 ± 0.70 µg/mL
Alpha-1 Antitrypsin [3, 6]: 2.19 ± 0.10 mg/mL
Alpha-2 Macroglobulin [3, 6]: 0.79 ± 0.06 mg/mL
Alpha-Fetoprotein [3, 6]: 2.35 ± 0.19 ng/mL
Apolipoprotein A1 [3, 6]: 0.30 ± 0.01 mg/mL
Apolipoprotein CIII [3, 6]: 111.60 ± 12.92 µg/mL
Apolipoprotein H [3, 6]: 257.10 ± 19.26 µg/mL
Apolipoprotein a [3, 6]: 110.78 ± 57.76 µg/mL
Beta-2 Microglobulin [3, 6]: 1.46 ± 0.14 µg/mL
Brain-Derived Neurotrophic Factor [3, 6]: 2.88 ± 0.71 ng/mL
C Reactive Protein [3, 6]: 1.77 ± 0.26 µg/mL
CD 40 [3, 6]: 0.76 ± 0.06 ng/mL
CD 40 Ligand [3, 6]: 0.74 ± 0.27 ng/mL
Carcinoembryonic Antigen [3, 6]: 1.49 ± 0.36 ng/mL
Creatine Kinase-MB [3, 6]: 0.30 ± 0.07 ng/mL
EN-RAGE [3, 6]: 3.45 ± 0.99 ng/mL
Eotaxin-1 [3, 6]: 71.37 ± 14.78 pg/mL
Epidermal growth factor [3, 6]: 251.67 ± 48.22
Epithelial derived-neutrophil-activating protein [3, 6]: 1.68 ± 0.41 ng/mL
Factor VII [3, 6]: 548.70 ± 64.71 ng/mL
Ferritin [3, 6]: 137.76 ± 59.13 ng/mL
Fibrinogen [3, 6]: 4.81 ± 0.29 mg/mL
Fibroblast growth factor-basic [3, 6]: 102.81 ± 19.33 pg/mL
Glutathione S-Transferase [3, 6]: 0.56 ± 0.02 ng/mL
Granulocyte colony-stimulating factor [3, 6]: 5.63 ± 1.12 pg/mL
Growth hormone [3, 6]: 1.71 ± 0.79 ng/mL
Haptoglobin [3, 6]: 1.26 ± 0.18 mg/mL
ICAM-1 [3, 6]: 105.01 ± 13.81 ng/mL
Immunoglobulin A [3, 6]: 2.14 ± 0.54 mg/mL
Immunoglobulin E [3, 6]: 28.89 ± 6.20 ng/mL
Immunoglobulin M [3, 6]: 1.85 ± 0.23 mg/mL
Insulin [3, 6]: 2.94 ± 0.53 μIU/mL
Interleukin-1 beta [3, 6]: 0.50 ± 0.14 pg/mL
Interleukin-1 receptor antagonist [3, 6]: 105.05 ± 14.03 pg/mL
Interleukin-3 [3, 6]: 0.05 ± 0.01 ng/mL
Interleukin-4 [3, 6]: 62.87 ± 8.35 pg/mL
Interleukin-5 [3, 6]: 3.80 ± 0.77 pg/mL
Interleukin-7 [3, 6]: 51.27 ± 7.39 pg/mL
Interleukin-8 [3, 6]: 11.26 ± 1.25 pg/mL
Interleukin-10 [3, 6]: 10.92 ± 2.07 pg/mL
Interleukin-12p 70 [3, 6]: 59.91 ± 2.15 pg/mL
Interleukin-13 [3, 6]: 59.52 ± 6.77 pg/mL
Interleukin-15 [3, 6]: 0.45 ± 0.09 ng/mL
Interleukin-16 [3, 6]: 404.90 ± 32.28 pg/mL
Interleukin-18 [3, 6]: 237.45 ± 24.67 pg/mL
Leptin [3, 6]: 15.00 ± 4.12 ng/mL
Macrophage inflammatory protein-1α [3, 6]: 106.76 ± 12.39 pg/mL
Macrophage inflammatory protein-1β [3, 6]: 183.58 ± 36.53 pg/mL
Matrix metalloproteinase-2 [3, 6]: 2.20 ± 156.40 µg/mL
Monocyte chemotactic protein-1 [3, 6]: 164.84 ± 16.25 pg/mL
Monocyte derived chemokine [3, 6]: 426.10 ± 40.45 pg/mL
Myeloperoxidase [3, 6]: 147.83 ± 22.42 ng/mL
Myoglobin [3, 6]: 14.94 ± 2.39 ng/mL
Plasminogen activator inhibitor-1 [3, 6]: 69.86 ± 15.86 ng/mL
Pregnancy associated plasma protein A [3, 6]: 0.02 ± 0.00 mIU/mL
Prostatic Acid Phosphatase [3, 6]: 0.17 ± 0.02 ng/mL
Serum amyloid P-component [3, 6]: 16.61 ± 0.94 µg/mL
Serum glutamic oxaloacetic transaminase [3, 6]: 9.67 ± 1.64 µg/mL
Sex hormone binding globulin [3, 6]: 33.29 ± 5.40 nmol/L
Stem Cell Factor [3, 6]: 351.05 ± 50.76 pg/mL
T-cell specific protein, RANTES [3, 6]: 16.48 ± 3.62 ng/mL
Thrombopoietin [3, 6]: 1.40 ± 0.22 ng/mL
Thyroid Stimulating Hormone [3, 6]: 1.72 ± 0.30 μIU/mL
Thyroxine Binding Globulin [3, 6]: 46.51 ± 2.84 µg/mL
Tissue factor [3, 6]: 0.45 ± 0.03 ng/mL
Tissue inhibitor of metalloproteinases-1 [3, 6]: 87.97 ± 8.38 ng/mL
Tumor necrosis factor receptor-like 2 [3, 6]: 3.83 ± 0.25 ng/mL
Tumor necrosis factor α [3, 6]: 3.58 ± 0.68 pg/mL
Vascular cell adhesion molecule-1 [3, 6]: 508.80 ± 49.79 ng/mL
Vascular endothelial growth factor [3, 6]: 883.55 ± 268.15 pg/mL
Von Willebrand Factor [3, 6]: 30.03 ± 3.09 µg/mL
tumor necrosis factor α (p=0.085), matrix metalloproteinase-9 (p=0.118), serum amyloid P (p=0.188) with supplementation ([3]; not significant): trends for decrease
Matrix metalloproteinase-2 ([3]; second line so named (r60), End LG, 500 mg/d, 56 days, n = 10, mean ± SEM): 0.07601 ± 0.02246 µg/mL
Complement 3 ([4]; plasma, End LG, 500 mg/d, 56 days, n = 10, mean ± SEM): 1.17 ± 0.05 mg/mL
decrease of plasma C3 concentration ([4]; vs end of placebo treatment, p=0.014): 6.4%
Specific gravity [5]: 1.02 ± 0.00
